Like-named read-outs stand apart in the source and are kept apart here.
How the values were obtained:
[1] = Solubility of amitraz in various solvents; type: physicochemical
Method: (§1) Solutions of amitraz in certain solvents at high concentration result in the appearance of crystals over time. […] The solubility of amitraz in butyl acetate is lower then in anisole, MIK and ethyl benzoate. […] Additionally, when amitraz (25%) in butyl acetate formulations were stored at 50° C. in a chamber, they evaporated slightly. […] Again, lowering concentration to 20% and addition of co-solvents with higher solubility of amitraz avoided crystallization of amitraz. Unexpectedly, this addition of co-solvents caused the effects described below in Example 9.

[2] = Crystal formation of amitraz formulations on storage or on the coat; type: physicochemical
Method: as §1

[3] = system: adult brown dog ticks (Rhipicephalus sanguineus); assay: Tick DMSO contact assay, Compound 1 with reduced dosages of amitraz, Example 16; type: in vivo
Method: Scintillation vials were treated with commercial and experimental compounds using the same procedure described in Example 12 above. The treated vials were used to determine the contact toxicity of compounds against adult brown dog ticks (Rhipicephalus sanguineus). The ticks were supplied by Ecto Services Inc. Henderson, N.C.
Unfed adult ticks were released into a metal pan and 10 living ticks were aspirated into each vial. […] Two replicates were tested for each treatment and the results were averaged. Ticks were stimulated by gently exhaling in the vials. Within the same time period, the addition of amitraz to an equal dosage of compound 1 increased mean mortality.

[4] = system: ticks (Rhipicephalus sanguineus); assay: Study A: tick efficacy of Compound 1 spot-on formulations in dogs; type: in vivo
Method: An initial clinical study was conducted to test the efficacy of Compound 1 (3-cyano-1-(2-chloro-6-fluoro-4-trifluoromethylphenyl)-4-dichlorofluoromethylsulfinyl-5-methyl-1H-pyrazole) against ticks and fleas in various test formulations. Five test groups and an untreated control were evaluated. Each test group included six dogs. Compound was dissolved in a solvent or a combination of two or more solvents at 10% w/w. Test articles were formulated as topical spot-on solutions containing compound 1, 10% w/v in a solvent or a combination of solvents as described above. Dogs were infested with approximately 50 ticks (Rhipicephalus sanguineus) on days −1, 7, 14, 21, 28, 35 and 42. Dogs were also infested with approximately 100 fleas (Ctenocephalides felis) on days −1, 8, 15, 22, 29, 36, and 43. Treatment was applied by parting the hair and applying the formulation directly onto the skin on one spot at the midline of the neck, between the base of the skull and the shoulder blades. The dose rate of each of the topical solutions was 0.1 ml/kg (10 mg/kg) body weight. The efficacy of compound 1 in various formulations is shown Table 2 below.
Negative values indicate % increase in tick counts relative to control.

[5] = 4 h, read-out: 4 hour % Mortality Rep 1
[6] = 4 h, read-out: 4 hour % Mortality Rep 2
[7] = 4 h, read-out: 4 hour Avg. % Mortality
[8] = 24 h, read-out: 24 hour % Mortality Rep 1
[9] = 24 h, read-out: 24 hour % Mortality Rep 2
[10] = 24 h, read-out: 24 hour Avg. % Mortality
[11] = 48 h, read-out: 48 hour % Mortality Rep 1
[12] = 48 h, read-out: 48 hour % Mortality Rep 2
[13] = 48 h, read-out: 48 hour Avg. % Mortality

With `Cc1ccc(/N=C/N(C)/C=N/c2ccc(C)cc2C)c(C)c1` [Amitraz, amitraz] the “Solubility of amitraz (at room temperature, %)” value ([1]; in Acetone) was 37.87%, the “Solubility of amitraz (at room temperature, %)” value ([1]; in Anisole (methoxybenzene)) was 45.54% and the “Solubility of amitraz (at room temperature, %)” value ([1]; in Benzyl acetate) was 21.85%. The “Solubility of amitraz (at room temperature, %)” value ([1]; in Benzyl benzoate) was 33.30%, the “Solubility of amitraz (at room temperature, %)” value ([1]; in Butyl acetate) was 27.10% and the “Solubility of amitraz (at room temperature, %)” value ([1]; in Ethyl benzoate) was 39.43%. The “Solubility of amitraz (at room temperature, %)” value ([1]; in Methyl isobutyl ketone) was 36.72%, the “crystals upon cooling to room temperature” value ([2]; amitraz (25%) in butyl acetate stored at 50° C. in a chamber) was “precipitated crystals” and the “crystals on the coat of animals” value ([2]; amitraz (25%) in butyl acetate, clinical studies) was “produced white crystals”. It also gave a mortality at 3.13 ppm [3, 5] of 0%, a mortality at 6.25 ppm [3, 5] of 0% and a mortality at 12.5 ppm [3, 5] of 0%. The mortality at 3.13 ppm [3, 6] was 0%, the mortality at 6.25 ppm [3, 6] was 0% and the mortality at 12.5 ppm [3, 6] was 0%. For the same molecule, the mortality at 3.13 ppm [3, 7] was 0%, the mortality at 6.25 ppm [3, 7] was 0% and the mortality at 12.5 ppm [3, 7] was 0%. The mortality at 3.13 ppm [3, 8] was 0%, the mortality at 6.25 ppm [3, 8] was 0% and the mortality at 12.5 ppm [3, 8] was 0%. It also gave a mortality at 3.13 ppm [3, 9] of 0%, a mortality at 6.25 ppm [3, 9] of 0% and a mortality at 12.5 ppm [3, 9] of 0%. The mortality at 3.13 ppm [3, 10] was 0%, the mortality at 6.25 ppm [3, 10] was 0% and the mortality at 12.5 ppm [3, 10] was 0%. The mortality at 3.13 ppm [3, 11] was 0%, the mortality at 6.25 ppm [3, 11] was 0% and the mortality at 12.5 ppm [3, 11] was 0%. For the same molecule, the mortality at 3.13 ppm [3, 12] was 0%, the mortality at 6.25 ppm [3, 12] was 0% and the mortality at 12.5 ppm [3, 12] was 0%. The mortality at 3.13 ppm [3, 13] was 0%, the mortality at 6.25 ppm [3, 13] was 0% and the mortality at 12.5 ppm [3, 13] was 0%.
In the case of `Cc1c([S+]([O-])C(F)(Cl)Cl)c(C#N)nn1-c1c(F)cc(C(F)(F)F)cc1Cl` (centres unmarked) [Compound 1, 3-cyano-1-(2-chloro-6-fluoro-4-trifluoromethylphenyl)-4-dichlorofluoromethylsulfinyl-5-methyl-1H-pyrazole], the “% Efficacy against ticks” value ([4]; Day 1, Trt. Group 2: 10 mg/kg in Butyl acetate/octyl acetate) is reported as 48.6%, the “% Efficacy against ticks” value ([4]; Day 1, Trt. Group 3: 10 mg/kg in Diethylene glycol monoethyl ether (transcutol)/N-methyl-2-pyrrolidone) is reported as 59.0% and the “% Efficacy against ticks” value ([4]; Day 1, Trt. Group 4: 10 mg/kg in Dipropylene glycol monomethyl ether/butyl acetate) is reported as 71.5%. For the same molecule, the “% Efficacy against ticks” value ([4]; Day 1, Trt. Group 5: 10 mg/kg in Diisopropyl adipate) was 71.5%, the “% Efficacy against ticks” value ([4]; Day 1, Trt. Group 6: 10 mg/kg in Triacetin) was 80.7% and the “% Efficacy against ticks” value ([4]; Day 2, Trt. Group 2: 10 mg/kg in Butyl acetate/octyl acetate) was 67.6%. The “% Efficacy against ticks” value ([4]; Day 2, Trt. Group 3: 10 mg/kg in Diethylene glycol monoethyl ether (transcutol)/N-methyl-2-pyrrolidone) was 60.8%, the “% Efficacy against ticks” value ([4]; Day 2, Trt. Group 4: 10 mg/kg in Dipropylene glycol monomethyl ether/butyl acetate) was 72.0% and the “% Efficacy against ticks” value ([4]; Day 2, Trt. Group 5: 10 mg/kg in Diisopropyl adipate) was 86.0%. The “% Efficacy against ticks” value ([4]; Day 2, Trt. Group 6: 10 mg/kg in Triacetin) was 79.2%, the “% Efficacy against ticks” value ([4]; Day 9, Trt. Group 2: 10 mg/kg in Butyl acetate/octyl acetate) was 88.1% and the “% Efficacy against ticks” value ([4]; Day 9, Trt. Group 3: 10 mg/kg in Diethylene glycol monoethyl ether (transcutol)/N-methyl-2-pyrrolidone) was 78.1%. For the same molecule, the “% Efficacy against ticks” value ([4]; Day 9, Trt. Group 4: 10 mg/kg in Dipropylene glycol monomethyl ether/butyl acetate) was 71.2%, the “% Efficacy against ticks” value ([4]; Day 9, Trt. Group 5: 10 mg/kg in Diisopropyl adipate) was 90.4% and the “% Efficacy against ticks” value ([4]; Day 9, Trt. Group 6: 10 mg/kg in Triacetin) was 83.1%. For the same molecule, the “% Efficacy against ticks” value ([4]; Day 16, Trt. Group 2: 10 mg/kg in Butyl acetate/octyl acetate) was 88.7%, the “% Efficacy against ticks” value ([4]; Day 16, Trt. Group 3: 10 mg/kg in Diethylene glycol monoethyl ether (transcutol)/N-methyl-2-pyrrolidone) was 81.4% and the “% Efficacy against ticks” value ([4]; Day 16, Trt. Group 4: 10 mg/kg in Dipropylene glycol monomethyl ether/butyl acetate) was 90.5%. The “% Efficacy against ticks” value ([4]; Day 16, Trt. Group 5: 10 mg/kg in Diisopropyl adipate) was 83.2%, the “% Efficacy against ticks” value ([4]; Day 16, Trt. Group 6: 10 mg/kg in Triacetin) was 91.7% and the “% Efficacy against ticks” value ([4]; Day 23, Trt. Group 2: 10 mg/kg in Butyl acetate/octyl acetate) was 41.1%. For the same molecule, the “% Efficacy against ticks” value ([4]; Day 23, Trt. Group 3: 10 mg/kg in Diethylene glycol monoethyl ether (transcutol)/N-methyl-2-pyrrolidone) was 52.2%, the “% Efficacy against ticks” value ([4]; Day 23, Trt. Group 4: 10 mg/kg in Dipropylene glycol monomethyl ether/butyl acetate) was 38.4% and the “% Efficacy against ticks” value ([4]; Day 23, Trt. Group 5: 10 mg/kg in Diisopropyl adipate) was 20.4%. For the same molecule, the “% Efficacy against ticks” value ([4]; Day 23, Trt. Group 6: 10 mg/kg in Triacetin) was 89.1%, the “% Efficacy against ticks” value ([4]; Day 30, Trt. Group 2: 10 mg/kg in Butyl acetate/octyl acetate) was 64.0% and the “% Efficacy against ticks” value ([4]; Day 30, Trt. Group 3: 10 mg/kg in Diethylene glycol monoethyl ether (transcutol)/N-methyl-2-pyrrolidone) was 45.9%. For the same molecule, the “% Efficacy against ticks” value ([4]; Day 30, Trt. Group 4: 10 mg/kg in Dipropylene glycol monomethyl ether/butyl acetate) was 71.7%, the “% Efficacy against ticks” value ([4]; Day 30, Trt. Group 5: 10 mg/kg in Diisopropyl adipate) was 78.2% and the “% Efficacy against ticks” value ([4]; Day 30, Trt. Group 6: 10 mg/kg in Triacetin) was 72.3%. For the same molecule, the “% Efficacy against ticks” value ([4]; Day 44, Trt. Group 2: 10 mg/kg in Butyl acetate/octyl acetate) was −8.6%, the “% Efficacy against ticks” value ([4]; Day 44, Trt. Group 3: 10 mg/kg in Diethylene glycol monoethyl ether (transcutol)/N-methyl-2-pyrrolidone) was −10.8% and the “% Efficacy against ticks” value ([4]; Day 44, Trt. Group 4: 10 mg/kg in Dipropylene glycol monomethyl ether/butyl acetate) was −29.9%. For the same molecule, the “% Efficacy against ticks” value ([4]; Day 44, Trt. Group 5: 10 mg/kg in Diisopropyl adipate) was 0.3% and the “% Efficacy against ticks” value ([4]; Day 44, Trt. Group 6: 10 mg/kg in Triacetin) was 47.8%.
